From US6525001B1, “Substituted pyrimidine and pyridine herbicides” (Mid-American Commercialization Corporation, priority 1997, dated 2003)

Assays:
Assay type in all cases: in vivo
Design in all cases: key: 0 is no effect; 10 is complete control
[1] = tested on: bedstraw (Galium aparine); assay: Test B pre-/postemergence
From the text: (§1) Seeds of bedstraw (Galium aparine), blackgrass (Alopecurus myosuroides), broadleaf signalgrass (Brachiaria decumbens), cocklebur (Xanthium strumarium), corn (Zea mays), crabgrass (Digitaria sanguinalis), giant foxtail (Setaria faberii), lambsquarters (Chenopodium album), momingglory (Ipomoea hederacea), pigweed (Amaranthus retroflexus), rape (Brassica napus), soybean (Glycine max), sugar beet (Beta vulgaris), velvetleaf (Abutilon theophrasti), wheat (Triticum aestivum), wild oat (Avena fatua) and purple nutsedge (Cyperus rotundus) tubers were planted and treated preemergence with test chemicals formulated in a non-phytotoxic solvent mixture which included a surfactant.
(§2) At the same time, these crop and weed species were also treated with postemergence applications of test chemicals formulated in the same manner. Plants ranged in height from 2 to 18 cm (1- to 4-leaf stage) for postemergence treatments. Plant species in the flood test consisted of rice (Oryza sativa), smallflower flatsedge (Cyperus difformis), duck salad (Heteranthera limosa) and bamyardgrass (Echinochloa crus-galli) grown to the 2-leaf stage for testing. Treated plants and controls were maintained in a greenhouse for twelve to sixteen days, after which all species were compared to controls and visually evaluated. Plant response ratings, summarized in Table B, are based on a scale of 0 to 10 where 0 is no effect and 10 is complete control. A dash (−) response means no test result.

[2] = tested on: blackgrass (Alopecurus myosuroides); assay: Test B pre-/postemergence
From the text: as §1, §2

[3] = tested on: broadleaf signalgrass (Brachiaria decumbens); assay: Test B pre-/postemergence
From the text: as §1, §2

[4] = tested on: cocklebur (Xanthium strumarium); assay: Test B pre-/postemergence
From the text: as §1, §2

corn (Zea mays) = assay: Test B pre-/postemergence
From the text: as §1, §2

[5] = tested on: crabgrass (Digitaria sanguinalis); assay: Test B pre-/postemergence
From the text: as §1, §2

[6] = tested on: giant foxtail (Setaria faberii); assay: Test B pre-/postemergence
From the text: as §1, §2

[7] = tested on: momingglory (Ipomoea hederacea); assay: Test B pre-/postemergence
From the text: as §1, §2

[8] = tested on: pigweed (Amaranthus retroflexus); assay: Test B pre-/postemergence
From the text: as §1, §2

rape (Brassica napus) = assay: Test B pre-/postemergence
From the text: as §1, §2

soybean (Glycine max) = assay: Test B pre-/postemergence
From the text: as §1, §2

[9] = tested on: sugar beet (Beta vulgaris); assay: Test B pre-/postemergence
From the text: as §1, §2

[10] = tested on: velvetleaf (Abutilon theophrasti); assay: Test B pre-/postemergence
From the text: as §1, §2

[11] = tested on: wheat (Triticum aestivum); assay: Test B pre-/postemergence
From the text: as §1, §2

wild oat (Avena fatua) = assay: Test B pre-/postemergence
From the text: as §1, §2

[12] = tested on: bamyardgrass (Echinochloa crus-galli); assay: Test B flood test
Outline: (§3)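 Read-out is a visual response score from 0 (no effect) to 10 (complete control), assigned by comparison with untreated controls. Treatment was applied at the 2-leaf stage, and plants stayed in the greenhouse for twelve to sixteen days before scoring.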

[13] = tested on: duck salad (Heteranthera limosa); assay: Test B flood test
Outline: as §3

rice (Oryza sativa) = assay: Test B flood test
Outline: as §3

[14] = tested on: smallflower flatsedge (Cyperus difformis); assay: Test B flood test
Outline: as §3

[15] = Preemergence, Rate 62 g/ha, scale of 0 to 10
[16] = Rate 62 g/ha, Postemergence (flood test)
[17] = Rate 125 g/ha, Postemergence section (flood test species)
[18] = Rate 250 g/ha, Postemergence (flood test species)

Structure (SMILES): CCc1cnc(-n2ccc(C(F)(F)F)n2)nc1C(=O)c1cccc(C#N)c1 [Compound 72]
- Plant response rating, Bedstraw [1, 15]: 0
- Plant response rating, Bedstraw ([1]; Rate 250 g/ha, Postemergence): 4
- Plant response rating, Bedstraw ([1]; Rate 250 g/ha, Preemergence): 5
- Plant response rating, Blackgrass [2, 15]: 1
- Blackgrass plant response rating ([2]; Rate 62 g/ha, Postemergence): 4
- Blackgrass plant response rating ([2]; Rate 125 g/ha, Postemergence): 5
- Plant response rating, Blackgrass ([2]; Rate 125 g/ha, Preemergence): 1
- Plant response rating, Blackgrass ([2]; Rate 250 g/ha, Postemergence): 5
- Plant response rating, Blackgrass ([2]; Rate 250 g/ha, Preemergence): 4
- B. signalgrass plant response rating ([3]; Rate 62 g/ha, Postemergence): 2
- B. signalgrass plant response rating ([3]; Rate 62 g/ha, Preemergence): 1
- B. signalgrass plant response rating ([3]; Rate 125 g/ha, Postemergence): 4
- Plant response rating, B. signalgrass ([3]; Rate 125 g/ha, Preemergence): 2
- Plant response rating, B. signalgrass ([3]; Rate 250 g/ha, Postemergence): 6
- Plant response rating, B. signalgrass ([3]; Rate 250 g/ha, Preemergence): 7
- Plant response rating, Cocklebur [4, 15]: 0
- Cocklebur plant response rating ([4]; Rate 62 g/ha, Postemergence): 3
- Cocklebur plant response rating ([4]; Rate 125 g/ha, Postemergence): 4
- Plant response rating, Cocklebur ([4]; Rate 125 g/ha, Preemergence): 0
- Plant response rating, Cocklebur ([4]; Rate 250 g/ha, Postemergence): 4
- Plant response rating, Cocklebur ([4]; Rate 250 g/ha, Preemergence): 0
- Plant response rating, Corn (corn (Zea mays); [15]): 3
- Corn plant response rating (corn (Zea mays); Rate 62 g/ha, Postemergence): 2
- Corn plant response rating (corn (Zea mays); Rate 125 g/ha, Postemergence): 3
- Plant response rating, Corn (corn (Zea mays); Rate 125 g/ha, Preemergence): 4
- Plant response rating, Corn (corn (Zea mays); Rate 250 g/ha, Postemergence): 5
- Plant response rating, Corn (corn (Zea mays); Rate 250 g/ha, Preemergence): 5
- Plant response rating, Crabgrass [5, 15]: 6
- Crabgrass plant response rating ([5]; Rate 62 g/ha, Postemergence): 4
- Crabgrass plant response rating ([5]; Rate 125 g/ha, Postemergence): 6
- Plant response rating, Crabgrass ([5]; Rate 125 g/ha, Preemergence): 9
- Plant response rating, Crabgrass ([5]; Rate 250 g/ha, Postemergence): 8
- Plant response rating, Crabgrass ([5]; Rate 250 g/ha, Preemergence): 9
- Plant response rating, Giant foxtail [6, 15]: 5
- Giant foxtail plant response rating ([6]; Rate 62 g/ha, Postemergence): 5
- Giant foxtail plant response rating ([6]; Rate 125 g/ha, Postemergence): 6
- Plant response rating, Giant foxtail ([6]; Rate 125 g/ha, Preemergence): 5
- Plant response rating, Giant foxtail ([6]; Rate 250 g/ha, Postemergence): 7
- Plant response rating, Giant foxtail ([6]; Rate 250 g/ha, Preemergence): 7
- Plant response rating, Morningglory [7, 15]: 2
- Morningglory plant response rating ([7]; Rate 125 g/ha, Postemergence): 4
- Plant response rating, Morningglory ([7]; Rate 125 g/ha, Preemergence): 3
- Plant response rating, Morningglory ([7]; Rate 250 g/ha, Postemergence): 4
- Plant response rating, Morningglory ([7]; Rate 250 g/ha, Preemergence): 8
- Plant response rating, Redroot pigweed [8, 15]: 7
- Redroot pigweed plant response rating ([8]; Rate 62 g/ha, Postemergence): 8
- Redroot pigweed plant response rating ([8]; Rate 125 g/ha, Postemergence): 9
- Plant response rating, Redroot pigweed ([8]; Rate 125 g/ha, Preemergence): 9
- Plant response rating, Redroot pigweed ([8]; Rate 250 g/ha, Postemergence): 9
- Plant response rating, Redroot pigweed ([8]; Rate 250 g/ha, Preemergence): 9
- Plant response rating, Rape (rape (Brassica napus); [15]): 4
- Rape plant response rating (rape (Brassica napus); Rate 62 g/ha, Postemergence): 3
- Rape plant response rating (rape (Brassica napus); Rate 125 g/ha, Postemergence): 7
- Plant response rating, Rape (rape (Brassica napus); Rate 125 g/ha, Preemergence): 5
- Plant response rating, Rape (rape (Brassica napus); Rate 250 g/ha, Postemergence): 7
- Plant response rating, Rape (rape (Brassica napus); Rate 250 g/ha, Preemergence): 9
- Plant response rating, Soybean (soybean (Glycine max); [15]): 0
- Soybean plant response rating (soybean (Glycine max); Rate 62 g/ha, Postemergence): 2
- Soybean plant response rating (soybean (Glycine max); Rate 125 g/ha, Postemergence): 2
- Plant response rating, Soybean (soybean (Glycine max); Rate 125 g/ha, Preemergence): 3
- Plant response rating, Soybean (soybean (Glycine max); Rate 250 g/ha, Postemergence): 5
- Plant response rating, Soybean (soybean (Glycine max); Rate 250 g/ha, Preemergence): 3
- Plant response rating, Sugarbeets [9, 15]: 8
- Sugarbeets plant response rating ([9]; Rate 62 g/ha, Postemergence): 9
- Sugarbeets plant response rating ([9]; Rate 125 g/ha, Postemergence): 9
- Plant response rating, Sugarbeets ([9]; Rate 125 g/ha, Preemergence): 10
- Plant response rating, Sugarbeets ([9]; Rate 250 g/ha, Postemergence): 9
- Plant response rating, Sugarbeets ([9]; Rate 250 g/ha, Preemergence): 10
- Plant response rating, Velvetleaf [10, 15]: 3
- Velvetleaf plant response rating ([10]; Rate 62 g/ha, Postemergence): 2
- Velvetleaf plant response rating ([10]; Rate 125 g/ha, Postemergence): 3
- Plant response rating, Velvetleaf ([10]; Rate 125 g/ha, Preemergence): 4
- Plant response rating, Velvetleaf ([10]; Rate 250 g/ha, Postemergence): 5
- Plant response rating, Velvetleaf ([10]; Rate 250 g/ha, Preemergence): 7
- Plant response rating, Wheat [11, 15]: 0
- Wheat plant response rating ([11]; Rate 62 g/ha, Postemergence): 3
- Wheat plant response rating ([11]; Rate 125 g/ha, Postemergence): 3
- Plant response rating, Wheat ([11]; Rate 125 g/ha, Preemergence): 0
- Plant response rating, Wheat ([11]; Rate 250 g/ha, Postemergence): 4
- Plant response rating, Wheat ([11]; Rate 250 g/ha, Preemergence): 3
- Plant response rating, Wild oats (wild oat (Avena fatua); [15]): 1
- Wild oats plant response rating (wild oat (Avena fatua); Rate 62 g/ha, Postemergence): 2
- Wild oats plant response rating (wild oat (Avena fatua); Rate 125 g/ha, Postemergence): 2
- Plant response rating, Wild oats (wild oat (Avena fatua); Rate 125 g/ha, Preemergence): 2
- Plant response rating, Wild oats (wild oat (Avena fatua); Rate 250 g/ha, Postemergence): 4
- Plant response rating, Wild oats (wild oat (Avena fatua); Rate 250 g/ha, Preemergence): 3
- Barnyardgrass plant response rating [12, 16]: 2
- Barnyardgrass plant response rating [12, 17]: 3
- Plant response rating, Barnyardgrass [12, 18]: 6
- Ducksalad plant response rating [13, 16]: 2
- Ducksalad plant response rating [13, 17]: 2
- Plant response rating, Ducksalad [13, 18]: 3
- Rice plant response rating (rice (Oryza sativa); [16]): 0
- Rice plant response rating (rice (Oryza sativa); [17]): 0
- Plant response rating, Rice (rice (Oryza sativa); [18]): 2
- S. Flatsedge plant response rating [14, 16]: 3
- S. Flatsedge plant response rating [14, 17]: 3
- Plant response rating, S. Flatsedge [14, 18]: 4
